# In publication PMC3523108 (European biophysics journal : EBJ, 2009):
# Biological target: bovine serum albumin (BSA) (Bos taurus, UniProt P02769)
# Format: binding
# Settings: slope of log((F0−F)/F) vs log[Q], Eq. 2; sensitizer 10^−6–7 × 10^−6 M
# Chain of bovine serum albumin (BSA) (P02769 25-607): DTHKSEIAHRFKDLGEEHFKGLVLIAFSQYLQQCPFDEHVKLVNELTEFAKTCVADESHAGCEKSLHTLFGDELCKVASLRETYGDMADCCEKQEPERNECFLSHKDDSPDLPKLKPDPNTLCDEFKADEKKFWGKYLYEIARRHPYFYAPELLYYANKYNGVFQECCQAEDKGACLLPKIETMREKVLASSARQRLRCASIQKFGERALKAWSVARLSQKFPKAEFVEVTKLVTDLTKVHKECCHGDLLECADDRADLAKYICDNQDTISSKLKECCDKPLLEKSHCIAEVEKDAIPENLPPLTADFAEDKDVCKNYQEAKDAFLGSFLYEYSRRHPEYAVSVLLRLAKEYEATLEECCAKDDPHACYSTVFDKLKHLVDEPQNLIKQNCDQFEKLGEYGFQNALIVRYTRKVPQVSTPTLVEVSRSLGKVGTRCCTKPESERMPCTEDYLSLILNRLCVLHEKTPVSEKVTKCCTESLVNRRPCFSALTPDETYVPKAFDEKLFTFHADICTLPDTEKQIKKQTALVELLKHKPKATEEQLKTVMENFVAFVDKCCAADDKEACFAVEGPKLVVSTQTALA
smiles,measurement,value
"C=CC1=C(C)c2cc3[nH]c(cc4nc(cc5[nH]c(cc1n2)c(C)c5CCC(=O)O)C(CCC(=O)O)=C4C)c(C)c3C=C [PP3, Protoporphyrin IX]",n (number of binding sites in BSA),0.993 ± 0.082
